These are literature values, as cited in article PMC6203792, “An IL13Rα2 peptide exhibits therapeutic activity against metastatic colorectal cancer” (British Journal of Cancer, 2018).

The data set has as its target IL13Rα2. The following applies: read-out: affinity of IL-13/IL13Rα2 molecular recognition.

Regarding IL-13: Recombinant human IL-13, the Kd is approximately 0.5 nM.
